How the values were obtained:
[1] = Hydrodynamic range by Taylor diffusion analysis (TDA); assay type: physicochemical
Experimental: (§1) In order to find the characteristic dimension of the GLDs in solution, the hydrodynamic ranges were determined from the molecular diffusion coefficients by using the Stoke-Einstein ratio:
(§2) where η is the viscosity of the medium, k the Boltzmann constant and T the temperature in K. In order to determine Dm, two experimental methods were used: quasi-elastic or static light diffusion (SLD) (coupled or not coupled with SEC), and the Taylor diffusion method (TDA). This latter method makes it possible to measure the diffusion coefficient of a species from the widening of a solute band under the influence of a hydrodynamic flow the speed profile of which is known to be dispersive (parabolic Poiseuille profile).
(§3) The TDA measurements were carried out using a capillary electrophoresis appliance, using silica capillaries of 50 μm i.d. (60 cm×50 cm up to the detector) the internal surface of which was previously modified by grafting a polycation (poly(diallyl-dimethyl-ammonium)) in order to limit the adsorption of the GLD solutes on the surface of the capillary. Dispersion of the solute band under the influence of the Poiseuille flow was measured using a UV spectrophotometer. The diffusion coefficient was then determined according to the method originally described by Taylor, then repeated by Bello et al.. In parallel to the TDA method, measurements were carried out by SLD, using a zetasizer (Malvern) device. Finally, it was also possible to obtain Rh measurements from the 3D-SEC (Viscotek). All of the numerical data for Rh is shown together in Table 3.

[2] = Hydrodynamic range by quasi-elastic or static light diffusion (SLD); assay type: physicochemical
Experimental: as §1, §2, §3

[3] = Buffer 1 (H2PO4−Na+ 50 g/L, pH 4.5)
[4] = Buffer 2 (Buffer 1 + 3% acetonitrile)
[5] = Buffer 3 (physiological buffer, pH 7.0)

## linear poly-L-Lysine [P1]
[1]; [3]
  Rh (nm) hydrodynamic range: 1.1 nm
[1]; [4]
  Rh (nm) hydrodynamic range: 0.95 nm
[1]; [5]
  Rh (nm) hydrodynamic range: 0.74 nm
[2]; [3]
  Rh (nm) hydrodynamic range: 1.18 nm
[2]; [4]
  Rh (nm) hydrodynamic range: 1.1 nm
[2]; [5]
  Rh (nm) hydrodynamic range: 1.01 nm

Source: patent publication US20080206183A1, “Method of Preparing Grafted Polylysine Dendrimers” (Central national De La Recherche Scientifique, priority 2005, published 2008)
